Measured values as given in paper PMC6576746, “Rational discovery of dual-indication multi-target PDE/Kinase inhibitor for precision anti-cancer therapy using structural systems pharmacology” (PLoS Computational Biology, 2019).

Experiments:
Test in all cases: biochemical
Set-up in all cases: DiscoverX KinomeScan competition binding assay across human kinases; per cent of control at 10 and 100 uM
LIMK2 = LIMK2 (Homo sapiens, UniProt P53671); settings: competition binding, % of control; read-out: Percent Control (100 uM Levosimendan)
Method in brief: (§1)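 KinomeScan competition binding was run across a human kinase panel at 10 μM and 100 μM levosimendan. Results are %control = (test − positive control)/(negative control − positive control) × 100.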

ABL1-nonphosphorylated = molecular target: T1, ABL1-nonphosphorylated (Homo sapiens, UniProt P00519); settings: competition binding, % of control
T1 construct: nonphosphorylated
T1 sequence (P00519 whole entry): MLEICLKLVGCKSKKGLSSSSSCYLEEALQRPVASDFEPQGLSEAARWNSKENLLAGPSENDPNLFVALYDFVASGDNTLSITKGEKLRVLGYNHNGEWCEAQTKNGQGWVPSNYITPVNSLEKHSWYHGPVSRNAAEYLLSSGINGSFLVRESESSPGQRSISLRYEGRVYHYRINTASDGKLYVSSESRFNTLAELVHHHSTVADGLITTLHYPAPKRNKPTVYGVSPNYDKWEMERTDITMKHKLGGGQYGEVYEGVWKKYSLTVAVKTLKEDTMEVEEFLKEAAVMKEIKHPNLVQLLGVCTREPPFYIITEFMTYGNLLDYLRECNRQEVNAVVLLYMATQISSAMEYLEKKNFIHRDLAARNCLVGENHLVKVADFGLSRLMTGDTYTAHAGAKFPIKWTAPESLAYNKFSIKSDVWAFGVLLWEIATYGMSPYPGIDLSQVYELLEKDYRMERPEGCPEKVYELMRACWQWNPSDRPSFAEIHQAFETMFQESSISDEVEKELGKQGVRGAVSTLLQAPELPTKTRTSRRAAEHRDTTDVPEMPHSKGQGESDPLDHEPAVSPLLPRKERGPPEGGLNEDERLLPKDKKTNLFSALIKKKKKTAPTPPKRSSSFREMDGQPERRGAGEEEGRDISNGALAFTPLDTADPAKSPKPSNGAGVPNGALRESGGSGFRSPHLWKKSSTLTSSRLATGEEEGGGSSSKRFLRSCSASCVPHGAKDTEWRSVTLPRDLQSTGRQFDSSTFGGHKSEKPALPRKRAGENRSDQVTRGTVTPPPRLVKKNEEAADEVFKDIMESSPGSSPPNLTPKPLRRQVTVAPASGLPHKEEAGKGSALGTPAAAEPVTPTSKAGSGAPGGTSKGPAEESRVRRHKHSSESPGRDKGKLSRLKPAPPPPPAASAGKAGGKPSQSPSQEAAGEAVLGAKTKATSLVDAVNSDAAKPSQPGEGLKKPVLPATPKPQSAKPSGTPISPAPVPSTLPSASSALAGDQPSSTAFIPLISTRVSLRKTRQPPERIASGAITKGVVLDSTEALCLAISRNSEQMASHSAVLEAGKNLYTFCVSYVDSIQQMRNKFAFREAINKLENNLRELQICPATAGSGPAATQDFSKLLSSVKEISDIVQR
Method in brief: as §1

MYLK2 = MYLK2 (Homo sapiens, UniProt Q9H1R3); settings: competition binding, % of control; read-out: Percent Control (100 uM Levosimendan)
Method in brief: as §1

MST2 = molecular target: T2, MST2 (Homo sapiens, UniProt Q13188); settings: competition binding, % of control; read-out: Percent Control (100 uM Levosimendan)
T2 construct: gene STK3
Method in brief: as §1

CAMK2D = CAMK2D (Homo sapiens, UniProt Q13557); settings: competition binding, % of control; read-out: Percent Control (100 uM Levosimendan)
CAMK2D, sequence (Q13557 whole entry): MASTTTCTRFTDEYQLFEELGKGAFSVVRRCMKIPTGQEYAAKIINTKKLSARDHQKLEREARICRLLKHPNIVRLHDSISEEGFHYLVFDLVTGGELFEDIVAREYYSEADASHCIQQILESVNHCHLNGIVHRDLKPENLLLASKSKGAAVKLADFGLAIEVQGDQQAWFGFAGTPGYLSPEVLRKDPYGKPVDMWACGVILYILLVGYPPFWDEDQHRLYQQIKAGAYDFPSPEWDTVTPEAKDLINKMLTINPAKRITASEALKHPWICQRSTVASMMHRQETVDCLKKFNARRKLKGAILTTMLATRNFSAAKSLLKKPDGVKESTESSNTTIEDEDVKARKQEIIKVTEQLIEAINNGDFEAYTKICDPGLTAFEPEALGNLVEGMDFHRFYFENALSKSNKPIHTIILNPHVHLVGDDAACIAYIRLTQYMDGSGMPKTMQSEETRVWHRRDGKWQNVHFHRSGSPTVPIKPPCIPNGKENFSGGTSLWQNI
Method in brief: as §1

HIPK4 = HIPK4 (Homo sapiens, UniProt Q8NE63); settings: competition binding, % of control; read-out: Percent Control (100 uM Levosimendan)
Method in brief: as §1

PKAC-beta = molecular target: T3, PKAC-beta (Homo sapiens, UniProt P22694); settings: competition binding, % of control; read-out: Percent Control (100 uM Levosimendan)
T3 construct: gene PRKACB
Method in brief: as §1

DAPK1 = DAPK1 (Homo sapiens, UniProt P53355); settings: competition binding, % of control; read-out: Percent Control (100 uM Levosimendan)
DAPK1, sequence (P53355 whole entry): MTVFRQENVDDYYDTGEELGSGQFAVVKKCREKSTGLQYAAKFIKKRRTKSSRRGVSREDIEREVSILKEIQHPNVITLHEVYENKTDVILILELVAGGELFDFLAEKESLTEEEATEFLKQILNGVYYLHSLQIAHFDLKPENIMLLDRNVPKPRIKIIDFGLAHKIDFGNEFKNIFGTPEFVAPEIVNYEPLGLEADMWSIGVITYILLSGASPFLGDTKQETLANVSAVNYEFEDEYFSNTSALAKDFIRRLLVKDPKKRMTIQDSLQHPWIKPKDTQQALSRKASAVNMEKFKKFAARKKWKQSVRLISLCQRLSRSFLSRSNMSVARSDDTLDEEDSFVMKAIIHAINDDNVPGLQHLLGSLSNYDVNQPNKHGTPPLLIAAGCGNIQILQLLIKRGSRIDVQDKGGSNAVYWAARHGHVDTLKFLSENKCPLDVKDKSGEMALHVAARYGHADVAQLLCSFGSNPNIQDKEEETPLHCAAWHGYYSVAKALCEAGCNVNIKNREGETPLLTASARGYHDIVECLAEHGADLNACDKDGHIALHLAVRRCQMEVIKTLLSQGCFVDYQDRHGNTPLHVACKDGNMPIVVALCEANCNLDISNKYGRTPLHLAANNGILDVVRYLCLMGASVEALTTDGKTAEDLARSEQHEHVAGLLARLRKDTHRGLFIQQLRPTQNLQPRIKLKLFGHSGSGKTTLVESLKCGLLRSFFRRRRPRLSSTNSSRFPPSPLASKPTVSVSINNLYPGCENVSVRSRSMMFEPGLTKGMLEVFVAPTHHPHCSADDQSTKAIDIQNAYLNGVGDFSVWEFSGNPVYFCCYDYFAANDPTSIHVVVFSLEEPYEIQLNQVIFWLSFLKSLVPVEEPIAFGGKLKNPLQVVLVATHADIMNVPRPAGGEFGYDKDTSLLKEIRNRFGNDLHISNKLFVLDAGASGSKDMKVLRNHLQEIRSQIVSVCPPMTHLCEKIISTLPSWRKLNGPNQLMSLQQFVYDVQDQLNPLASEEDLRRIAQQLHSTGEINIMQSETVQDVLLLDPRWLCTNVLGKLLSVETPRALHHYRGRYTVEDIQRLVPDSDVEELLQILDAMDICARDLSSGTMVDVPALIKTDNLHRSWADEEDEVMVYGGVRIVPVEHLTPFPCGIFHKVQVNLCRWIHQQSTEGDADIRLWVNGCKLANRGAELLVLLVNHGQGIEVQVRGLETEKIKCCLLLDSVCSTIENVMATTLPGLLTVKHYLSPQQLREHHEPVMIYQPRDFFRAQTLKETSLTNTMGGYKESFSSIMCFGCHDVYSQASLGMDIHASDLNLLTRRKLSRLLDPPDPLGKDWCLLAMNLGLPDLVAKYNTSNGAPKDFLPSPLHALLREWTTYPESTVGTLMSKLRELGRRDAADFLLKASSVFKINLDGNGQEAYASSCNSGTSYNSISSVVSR
Method in brief: as §1

MLK2 = molecular target: T4, MLK2 (Homo sapiens, UniProt Q02779); settings: competition binding, % of control; read-out: Percent Control (100 uM Levosimendan)
T4 construct: gene MAP3K10
Method in brief: as §1

MAP3K15 = MAP3K15 (Homo sapiens, UniProt Q6ZN16); settings: competition binding, % of control; read-out: Percent Control (100 uM Levosimendan)
Method in brief: as §1

AAK1 = AAK1 (Homo sapiens, UniProt Q2M2I8); settings: competition binding, % of control
AAK1, sequence (Q2M2I8 whole entry): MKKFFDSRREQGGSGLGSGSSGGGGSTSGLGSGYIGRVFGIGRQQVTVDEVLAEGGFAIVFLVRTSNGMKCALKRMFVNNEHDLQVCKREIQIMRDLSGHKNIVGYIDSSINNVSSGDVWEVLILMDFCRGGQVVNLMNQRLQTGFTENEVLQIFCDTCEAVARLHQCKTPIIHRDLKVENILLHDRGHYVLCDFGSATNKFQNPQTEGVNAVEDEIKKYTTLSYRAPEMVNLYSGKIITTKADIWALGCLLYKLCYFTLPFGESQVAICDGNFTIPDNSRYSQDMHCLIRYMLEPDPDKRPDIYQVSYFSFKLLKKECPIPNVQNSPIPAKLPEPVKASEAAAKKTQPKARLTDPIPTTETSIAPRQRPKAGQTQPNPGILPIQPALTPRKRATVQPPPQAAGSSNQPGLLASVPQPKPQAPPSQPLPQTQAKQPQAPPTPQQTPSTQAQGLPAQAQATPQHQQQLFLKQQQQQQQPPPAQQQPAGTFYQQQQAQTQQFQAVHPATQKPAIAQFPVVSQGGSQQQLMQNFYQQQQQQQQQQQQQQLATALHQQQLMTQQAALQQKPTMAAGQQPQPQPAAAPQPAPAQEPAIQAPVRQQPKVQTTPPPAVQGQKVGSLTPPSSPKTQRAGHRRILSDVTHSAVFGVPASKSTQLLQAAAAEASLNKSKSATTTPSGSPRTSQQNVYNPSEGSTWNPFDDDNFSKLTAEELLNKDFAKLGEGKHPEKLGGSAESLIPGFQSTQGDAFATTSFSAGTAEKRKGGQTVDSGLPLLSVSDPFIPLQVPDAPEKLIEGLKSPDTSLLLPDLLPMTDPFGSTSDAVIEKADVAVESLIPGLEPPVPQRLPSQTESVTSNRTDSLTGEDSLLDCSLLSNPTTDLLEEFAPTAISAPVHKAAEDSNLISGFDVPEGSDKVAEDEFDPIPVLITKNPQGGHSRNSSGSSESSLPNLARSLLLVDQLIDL
Method in brief: as §1

[1] = molecular target: T5, ABL1(F317I)-nonphosphorylated (Homo sapiens, UniProt P00519, F317I); settings: competition binding, % of control; read-out: Percent Control (100 uM Levosimendan)
T5 construct: nonphosphorylated
T5 sequence (P00519 whole entry F317I): as the sequence (P00519 whole entry) above, with F317I counted along it
Method in brief: as §1

CAMKK2 = CAMKK2 (Homo sapiens, UniProt Q96RR4); settings: competition binding, % of control; read-out: Percent Control (100 uM Levosimendan)
CAMKK2, sequence (Q96RR4 whole entry): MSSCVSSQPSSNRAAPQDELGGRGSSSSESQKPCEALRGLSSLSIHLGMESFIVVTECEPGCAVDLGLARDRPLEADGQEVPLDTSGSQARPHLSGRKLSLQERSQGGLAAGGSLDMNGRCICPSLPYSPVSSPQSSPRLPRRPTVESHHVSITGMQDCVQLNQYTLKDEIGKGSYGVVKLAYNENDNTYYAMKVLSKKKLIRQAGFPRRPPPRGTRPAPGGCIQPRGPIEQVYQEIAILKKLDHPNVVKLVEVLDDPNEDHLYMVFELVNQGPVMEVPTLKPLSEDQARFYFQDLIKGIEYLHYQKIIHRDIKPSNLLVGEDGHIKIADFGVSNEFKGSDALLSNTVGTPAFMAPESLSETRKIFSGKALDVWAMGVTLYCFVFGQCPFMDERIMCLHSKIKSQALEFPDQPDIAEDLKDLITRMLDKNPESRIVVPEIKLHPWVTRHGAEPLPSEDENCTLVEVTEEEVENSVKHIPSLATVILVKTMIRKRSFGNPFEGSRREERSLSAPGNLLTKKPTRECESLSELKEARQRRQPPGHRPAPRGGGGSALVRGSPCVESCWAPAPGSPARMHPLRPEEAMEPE
Method in brief: as §1

MRCKA = molecular target: T6, MRCKA (Homo sapiens, UniProt Q5VT25); settings: competition binding, % of control; read-out: Percent Control (100 uM Levosimendan)
T6 construct: gene CDC42BPA
Method in brief: as §1

RIOK3 = molecular target: T7, RIOK3 (Homo sapiens, UniProt O14730); settings: competition binding, % of control
T7 sequence (O14730 1-519): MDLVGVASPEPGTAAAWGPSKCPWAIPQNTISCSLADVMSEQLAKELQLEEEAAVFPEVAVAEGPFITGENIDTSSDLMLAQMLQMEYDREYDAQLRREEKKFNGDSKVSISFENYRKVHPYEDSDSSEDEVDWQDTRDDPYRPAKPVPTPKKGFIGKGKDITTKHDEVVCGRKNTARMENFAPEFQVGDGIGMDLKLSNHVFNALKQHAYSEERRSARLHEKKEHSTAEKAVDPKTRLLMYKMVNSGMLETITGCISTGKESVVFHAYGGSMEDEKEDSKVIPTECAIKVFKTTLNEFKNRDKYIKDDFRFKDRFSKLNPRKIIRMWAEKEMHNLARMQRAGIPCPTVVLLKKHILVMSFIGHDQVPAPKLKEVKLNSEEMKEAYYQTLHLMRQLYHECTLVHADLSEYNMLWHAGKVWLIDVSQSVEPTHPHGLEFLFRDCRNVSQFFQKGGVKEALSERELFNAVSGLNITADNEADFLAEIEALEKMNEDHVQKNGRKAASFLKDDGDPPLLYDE
Method in brief: as §1

[2] = read-out: Percent Control (10 uM Levosimendan)
[3] = read-out: Percent Control (100 uM Levosimendan)

remaining binding at 100 µM (LIMK2): 87% | remaining binding at 10 µM (ABL1-nonphosphorylated; [2]): 94% | remaining binding at 100 µM (ABL1-nonphosphorylated; [3]): 49% | remaining binding at 100 µM (MYLK2): 81% | remaining binding at 100 µM (MST2): 100% | remaining binding at 100 µM (CAMK2D): 87% | remaining binding at 100 µM (HIPK4): 84% | remaining binding at 100 µM (PKAC-beta): 64% | remaining binding at 100 µM (DAPK1): 88% | remaining binding at 100 µM (MLK2): 81% | remaining binding at 100 µM (MAP3K15): 100% | remaining binding at 10 µM (AAK1; [2]): 31% | remaining binding at 100 µM (AAK1; [3]): 24% | remaining binding at 100 µM [1]: 100% | remaining binding at 100 µM (CAMKK2): 54% | remaining binding at 100 µM (MRCKA): 90% | remaining binding at 10 µM (RIOK3; [2]): 15% | remaining binding at 100 µM (RIOK3; [3]): 0%
Structure (SMILES): C[C@@H]1CC(=O)NN=C1c1ccc(NN=C(C#N)C#N)cc1 [levosimendan]
